Measured values reported in US4016158A, “Cephalosporin derivatives” (Roussel-UCLAF, priority 1971, dated 1977).
Converted amounts (≈) assume the structure as drawn. Like-named read-outs stand apart in the source and are kept apart here.

Tests used:
Strept. Fecalis 5432 = assay: MIC, diffusion method in gelose medium at pH 7 (Table I); assay type: cell-based
Procedure: (§1) The antibiotic activity was determined by the diffusion method in a gelose medium at a pH of 7. The following Table expresses the minimum concentration of inhibition in mcg/ml (CMl) for the products against different microbial strains.

Pseudomonas = assay: as above; assay type: cell-based; settings: read-out: minimum concentration of inhibition
Procedure: as §1

[1] = system: Strept. hemoly. Todd Hewitt; assay: as above; assay type: cell-based
Procedure: as §1

Staph. U.C. 1128 P(-) = assay: as above; assay type: cell-based; settings: Staph. UC 1128, penicillin resistant, read-out: minimum concentration of inhibition
Procedure: as §1

[2] = system: Staph. aureus oxford U.C. 1061 P(+); assay: as above; assay type: cell-based; settings: Staphylococcus aureus
Procedure: as §1

Escher. Coli UC 1020 = assay: as above; assay type: cell-based; settings: Escherichia coli
Procedure: as §1

Escher. Coli UC 1261 = assay: as above; assay type: cell-based; settings: Escherichia coli
Procedure: as §1

Bac. Subt. = assay: as above; assay type: cell-based
Procedure: as §1

solubility = assay type: physicochemical
[3] = system: Staphylococcus aureus 9482; assay: MIC (Table II); assay type: cell-based; settings: read-out: minimum inhibition concentration
Procedure: as §1
(§2) Using the same procedure as in Table I, the minimum inhibition concentration in mcg/ml was determined against different microbial strains with L(-) cis 7-[D(-)-α-aminophenylacetamido]-3-isopropyl-3-cepheme-4-carboxylic acid (product A) of Example 9.

[4] = system: Staphylococcus aureus 9729; assay: MIC (Table II); assay type: cell-based; settings: read-out: minimum inhibition concentration
Procedure: as §1, §2

[5] = system: Staphylococcus aureus 4546; assay: MIC (Table II); assay type: cell-based; settings: read-out: minimum inhibition concentration
Procedure: as §1, §2

[6] = system: Staphylococcus aureus 9373; assay: MIC (Table II); assay type: cell-based; settings: read-out: minimum inhibition concentration
Procedure: as §1, §2

[7] = system: Staphylococcus aureus 889; assay: MIC (Table II); assay type: cell-based; settings: read-out: minimum inhibition concentration
Procedure: as §1, §2

[8] = system: Staphylococcus aureus A8P; assay: MIC (Table II); assay type: cell-based; settings: read-out: minimum inhibition concentration
Procedure: as §1, §2

[9] = system: certain gram negative bacteria, particularly coliform bacteria; assay: antibacterial activity, statement
[10] = system: gram positive bacteria such as staphylococci and streptococci; assay: antibacterial activity, statement; settings: particularly penicillin resistant staphylococci
[11] = Strept. Fecalis 5432, pH 7, read-out: minimum concentration of inhibition
[12] = Strept. hemoly. Todd Hewitt, pH 7, read-out: minimum concentration of inhibition
[13] = UC1061, Staph. aureus oxford UC 1061, penicillin sensitive, pH 7, read-out: minimum concentration of inhibition
[14] = UC1020, Escher. Coli UC 1020, pH 7, read-out: minimum concentration of inhibition
[15] = UC1261, Escher. Coli UC 1261, pH 7, read-out: minimum concentration of inhibition
[16] = Bac. Subt., pH 7, read-out: minimum concentration of inhibition
[17] = pH 7, read-out: minimum concentration of inhibition

| Structure (SMILES) | MIC (Strept. Fecalis 5432; [11]) [µg/mL] | MIC (Pseudomonas) [µg/mL] | MIC [1, 12] [µg/mL] | MIC (Staph. U.C. 1128 P(-)) [µg/mL] | MIC [2, 13] [µg/mL] | MIC (Escher. Coli UC 1020; [14]) [µg/mL] | MIC (Escher. Coli UC 1261; [15]) [µg/mL] | MIC (Bac. Subt.; [16]) [µg/mL] | solubility in ethanol (solubility) | solubility in water (solubility) | solubility in ether (solubility) | also measured |
| --- | --- | --- | --- | --- | --- | --- | --- | --- | --- | --- | --- | --- |
| CC(C)C1=C(C(=O)O)N2C(=O)[C@@H](NC(=O)Cc3ccc([N+](=O)[O-])cc3)[C@H]2SC1 (relative stereo) [Example 6, DL cis 7-p-nitrophenylacetamido-3-isopropyl-3-cepheme-4-carboxylic acid] | > 40 | > 200 | 5 (≈ 12.3 µM) | 2 (≈ 4.93 µM) | 0.4 (≈ 0.987 µM) | > 200 | > 200 | 0.2 (≈ 0.493 µM) | slightly soluble | insoluble | – | – |
| CC(C)C1=C(C(=O)O)N2C(=O)[C@@H](NC(=O)Cc3ccc(N)cc3)[C@H]2SC1 (relative stereo) [Example 7, DL cis 7-p-aminophenylacetamido-3-isopropyl-3-cepheme-4-carboxylic acid] | > 40 | > 200 | 10 (≈ 26.6 µM) | – | 2 (≈ 5.33 µM) | > 200 | > 200 | 0.05 (≈ 0.133 µM) | slightly soluble | slightly soluble | insoluble | solubility in chloroform (solubility; chloroform): slightly soluble |
| CC(C)C1=C(C(=O)O)N2C(=O)[C@@H](NC(=O)Cc3cccs3)[C@H]2SC1 (relative stereo) [Example 8, DL cis 7-(2'-thienyl)-acetamido-3-isopropyl-3-cepheme-4-carboxylic acid] | > 40 | > 200 | 10 (≈ 27.3 µM) | 5 (≈ 13.6 µM) | 2 (≈ 5.46 µM) | > 200 | > 200 | 0.4 (≈ 1.09 µM) | slightly soluble | insoluble | – | solubility in methanol (solubility; methanol): soluble |
| CC1=C(C(=O)O)N2C(=O)[C@@H](NC(=O)[C@H](N)c3ccccc3)[C@H]2SC1 [Cephalexin, reference compound] | – | – | – | 10 (≈ 28.8 µM) | – | – | – | – | – | – | – | MIC (Strept. Fecalis 5432; [17]): 60 µg/mL (≈ 173 µM); MIC [1, 17]: 10 µg/mL (≈ 28.8 µM); MIC ([2]; UC1061, pH 7, read-out: minimum concentration of inhibition): 2 µg/mL (≈ 5.76 µM); MIC (Escher. Coli UC 1020; UC1020, pH 7, read-out: minimum concentration of inhibition): 20 µg/mL (≈ 57.6 µM); MIC (Escher. Coli UC 1261; UC1261, pH 7, read-out: minimum concentration of inhibition): 20 µg/mL (≈ 57.6 µM); MIC (Bac. Subt.; [17]): 0.2 µg/mL (≈ 0.576 µM); MIC ([3]; Staphylococcus aureus, 9482, 24 h): 1 µg/mL (≈ 2.88 µM); MIC ([3]; Staphylococcus aureus, 9482, 48 h): 1 µg/mL (≈ 2.88 µM); MIC ([4]; Staphylococcus aureus, 9729, 24 h): 2 µg/mL (≈ 5.76 µM); MIC ([4]; Staphylococcus aureus, 9729, 48 h): 3 µg/mL (≈ 8.64 µM); MIC ([5]; Staphylococcus aureus, 4546, 24 h): 1 µg/mL (≈ 2.88 µM); MIC ([5]; Staphylococcus aureus, 4546, 48 h): 3 µg/mL (≈ 8.64 µM); MIC ([6]; Staphylococcus aureus, 9373, 24 h): 2 µg/mL (≈ 5.76 µM); MIC ([6]; Staphylococcus aureus, 9373, 48 h): 3 µg/mL (≈ 8.64 µM); MIC ([7]; Staphylococcus aureus, 889, 24 h): 5 µg/mL (≈ 14.4 µM); MIC ([7]; Staphylococcus aureus, 889, 48 h): 10 µg/mL (≈ 28.8 µM); MIC ([8]; 24 h): 2 µg/mL (≈ 5.76 µM); MIC ([8]; 48 h): 5 µg/mL (≈ 14.4 µM) |
| N[C@@H](C(=O)N[C@@H]1C(=O)N2C(C(=O)O)=C(C3CCCC3)CS[C@H]12)c1ccccc1 [Example 10, L(+) 6R, 7R 7-[R(-)-α-aminophenylacetamido]-3-cyclopentyl-3-cepheme-4-carboxylicacid] | 20 (≈ 49.8 µM) | – | 10 (≈ 24.9 µM) | 1 (≈ 2.49 µM) | 0.4 (≈ 0.996 µM) | – | – | 0.05 (≈ 0.125 µM) | slightly soluble | slightly soluble | insoluble | activity against certain gram negative bacteria [9]: active; activity against gram positive bacteria [10]: active |
| O=C(Cc1ccc([N+](=O)[O-])cc1)NC1C(=O)N2C(C(=O)O)=C(C3CCCC3)CSC12 (stereo not drawn) [Example 11, DL cis 7-p-nitrophenylacetamido-3-cyclopentyl-3-cepheme-4-carboxylic acid] | > 40 | – | > 40 | 0.4 (≈ 0.927 µM) | 0.2 (≈ 0.464 µM) | – | – | 0.1 (≈ 0.232 µM) | slightly soluble | insoluble | insoluble | – |
| Nc1ccc(CC(=O)NC2C(=O)N3C(C(=O)O)=C(C4CCCC4)CSC23)cc1 (stereo not drawn) [Example 12, DL cis 7-p-aminophenylacetamido-3-cyclopentyl-3-cepheme-4-carboxylic acid] | – | – | – | – | – | – | – | – | soluble | slightly soluble | insoluble | – |
| O=C(Cc1cccs1)NC1C(=O)N2C(C(=O)O)=C(C3CCCC3)CSC12 (stereo not drawn) [Example 13, DL cis 7-(2'-thienyl)-acetamido-3-cyclopentyl-3-cepheme-4-carboxylic acid] | 20 (≈ 51 µM) | – | > 40 | – | 1 (≈ 2.55 µM) | – | – | 1 (≈ 2.55 µM) | – | slightly soluble | insoluble | – |
